Experiments:
CFTR ΔF508 mutant = target: T1, CFTR ΔF508 mutant (Homo sapiens, UniProt P13569, DEL508-508); test: YFP-halide influx assay for the CFTR-ΔF508 mutation (CFBE41o- cells); type: cell-based; conditions: forskolin 10.67 μM; for EC50: from (1−F/F0) vs concentration plot
T1 construct: expressed in transfected cells; host or cells: CFBE41o- cells, adenoviral transduction
Procedure, shortened: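 EC50 derived from plotting 1−F/F0 (fluorescence 36 s after iodide injection over pre-injection value) against compound concentration. Cells: CFBE41o- transduced with ΔF508-CFTR and YFP quench reporter, corrected 24 h at 27° C or by a CFTR modulator at 37° C.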

CFTR G551D mutant = target: T2, CFTR G551D mutant (Homo sapiens, UniProt P13569, G551D); test: YFP-halide influx assay for the CFTR-G551D mutation (HEK293 cells); type: cell-based; conditions: forskolin 10.67 μM
T2 construct: expressed in transfected cells; host or cells: HEK293 cells, reverse transfection with plasmids
Procedure, shortened: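 Channel opening read as I⁻-driven quenching of a YFP H148Q/I152L/F47L reporter over 7 s post-injection, expressed as 1−F/F0 and fitted against concentration for EC50. Cells were HEK293 co-transfected at seeding with G551D CFTR plus reporter, then grown 24 h at 37 °C, 5% CO2.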

T1 sequence (P13569 with tags, fused parts or gaps DEL508-508): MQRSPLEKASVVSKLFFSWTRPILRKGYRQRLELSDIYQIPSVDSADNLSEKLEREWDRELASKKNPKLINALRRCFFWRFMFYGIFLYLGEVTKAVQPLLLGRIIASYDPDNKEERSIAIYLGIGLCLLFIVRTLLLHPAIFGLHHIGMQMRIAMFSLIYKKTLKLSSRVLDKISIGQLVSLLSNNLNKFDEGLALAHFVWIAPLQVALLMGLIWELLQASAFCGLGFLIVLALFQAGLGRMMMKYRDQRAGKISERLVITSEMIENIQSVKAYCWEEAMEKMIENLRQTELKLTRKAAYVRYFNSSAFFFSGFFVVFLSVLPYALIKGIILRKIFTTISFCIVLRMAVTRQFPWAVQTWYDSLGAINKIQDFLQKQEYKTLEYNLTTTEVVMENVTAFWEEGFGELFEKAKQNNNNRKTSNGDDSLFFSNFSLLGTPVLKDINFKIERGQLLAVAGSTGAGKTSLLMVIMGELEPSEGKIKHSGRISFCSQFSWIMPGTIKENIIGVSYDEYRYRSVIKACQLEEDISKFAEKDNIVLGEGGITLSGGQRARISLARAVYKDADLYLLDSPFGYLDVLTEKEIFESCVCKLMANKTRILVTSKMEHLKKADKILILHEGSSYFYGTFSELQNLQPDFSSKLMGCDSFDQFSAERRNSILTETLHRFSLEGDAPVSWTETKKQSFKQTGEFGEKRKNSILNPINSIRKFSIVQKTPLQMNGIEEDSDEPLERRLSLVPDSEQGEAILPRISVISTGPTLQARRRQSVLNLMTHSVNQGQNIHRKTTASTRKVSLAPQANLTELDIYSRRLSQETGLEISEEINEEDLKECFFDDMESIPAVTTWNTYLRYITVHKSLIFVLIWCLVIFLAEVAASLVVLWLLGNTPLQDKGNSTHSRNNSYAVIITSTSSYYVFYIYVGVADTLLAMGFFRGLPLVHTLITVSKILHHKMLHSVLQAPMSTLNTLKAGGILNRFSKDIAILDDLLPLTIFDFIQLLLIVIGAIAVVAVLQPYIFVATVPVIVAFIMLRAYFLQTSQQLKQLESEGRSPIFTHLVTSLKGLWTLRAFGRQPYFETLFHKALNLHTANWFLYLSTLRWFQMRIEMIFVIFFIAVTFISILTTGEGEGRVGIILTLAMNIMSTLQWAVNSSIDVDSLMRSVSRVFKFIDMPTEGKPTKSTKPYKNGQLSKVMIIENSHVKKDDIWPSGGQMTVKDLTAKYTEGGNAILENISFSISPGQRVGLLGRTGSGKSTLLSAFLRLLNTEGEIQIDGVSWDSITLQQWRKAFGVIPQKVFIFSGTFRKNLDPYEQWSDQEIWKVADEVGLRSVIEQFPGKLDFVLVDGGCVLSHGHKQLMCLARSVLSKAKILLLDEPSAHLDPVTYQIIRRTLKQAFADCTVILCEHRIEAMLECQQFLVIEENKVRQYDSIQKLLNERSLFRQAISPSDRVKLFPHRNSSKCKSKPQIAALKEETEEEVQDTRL
T2 sequence (P13569 whole entry G551D): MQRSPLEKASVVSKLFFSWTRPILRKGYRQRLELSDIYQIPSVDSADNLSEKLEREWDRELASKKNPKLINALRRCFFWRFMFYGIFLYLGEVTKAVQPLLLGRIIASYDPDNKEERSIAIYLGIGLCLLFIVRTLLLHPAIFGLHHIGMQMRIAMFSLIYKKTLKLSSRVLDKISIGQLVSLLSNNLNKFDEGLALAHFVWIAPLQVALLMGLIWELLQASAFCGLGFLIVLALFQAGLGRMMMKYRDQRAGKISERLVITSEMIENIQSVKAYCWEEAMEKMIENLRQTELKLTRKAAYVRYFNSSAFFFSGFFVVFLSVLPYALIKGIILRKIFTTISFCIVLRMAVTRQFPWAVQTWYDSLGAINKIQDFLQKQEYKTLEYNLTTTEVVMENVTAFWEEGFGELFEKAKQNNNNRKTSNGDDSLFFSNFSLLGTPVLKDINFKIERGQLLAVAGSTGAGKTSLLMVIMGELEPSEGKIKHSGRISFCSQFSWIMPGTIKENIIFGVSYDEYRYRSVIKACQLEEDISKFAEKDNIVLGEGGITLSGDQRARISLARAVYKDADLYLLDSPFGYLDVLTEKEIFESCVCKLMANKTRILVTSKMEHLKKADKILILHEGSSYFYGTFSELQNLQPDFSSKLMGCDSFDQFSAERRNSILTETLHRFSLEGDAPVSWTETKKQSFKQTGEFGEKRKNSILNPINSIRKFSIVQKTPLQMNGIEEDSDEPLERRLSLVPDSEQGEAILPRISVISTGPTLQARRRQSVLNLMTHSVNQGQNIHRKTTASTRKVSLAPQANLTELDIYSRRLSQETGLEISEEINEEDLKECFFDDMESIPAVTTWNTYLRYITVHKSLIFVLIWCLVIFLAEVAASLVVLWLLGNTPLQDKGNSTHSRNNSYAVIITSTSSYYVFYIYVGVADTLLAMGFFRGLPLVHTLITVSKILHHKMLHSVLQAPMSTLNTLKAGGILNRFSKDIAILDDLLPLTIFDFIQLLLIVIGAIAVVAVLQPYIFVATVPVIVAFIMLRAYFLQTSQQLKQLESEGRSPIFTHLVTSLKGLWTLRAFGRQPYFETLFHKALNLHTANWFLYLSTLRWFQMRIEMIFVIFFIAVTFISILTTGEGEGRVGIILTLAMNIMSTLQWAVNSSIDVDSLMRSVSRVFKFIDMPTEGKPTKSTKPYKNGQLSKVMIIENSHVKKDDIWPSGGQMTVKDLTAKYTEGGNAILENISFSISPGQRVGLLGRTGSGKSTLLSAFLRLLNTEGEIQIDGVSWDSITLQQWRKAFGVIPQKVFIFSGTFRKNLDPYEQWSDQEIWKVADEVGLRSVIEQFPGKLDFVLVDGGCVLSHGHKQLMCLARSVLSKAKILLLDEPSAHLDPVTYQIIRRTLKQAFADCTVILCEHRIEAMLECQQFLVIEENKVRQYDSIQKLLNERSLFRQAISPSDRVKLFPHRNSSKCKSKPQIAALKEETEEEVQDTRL

% Activation (CFTR ΔF508 mutant)	EC50 (CFTR ΔF508 mutant)	% Activation (CFTR G551D mutant)	EC50 (CFTR G551D mutant)	SMILES
106.5%	64.2 nM	71.2%	1580 nM	Nc1cc(S(=O)(=O)c2ccc(C(F)(F)F)cc2)cnc1C(=O)NC[C@H]1CCOC1 [Compound 101, 3-amino-N-[(3R)-tetrahydrofuran-3-ylmethyl]-5-{[4-(trifluoromethyl)phenyl]sulfonyl}pyridine-2-carboxamide]
119.0%	28.2 nM	73.6%	1360 nM	Nc1cc(S(=O)(=O)c2ccc(C(F)(F)F)cc2)cnc1C(=O)NC[C@@H]1CCOC1 [Compound 102, 3-amino-N-[(3S)-tetrahydrofuran-3-ylmethyl]-5-{[4-(trifluoromethyl)phenyl]sulfonyl}pyridine-2-carboxamide]
100.8%	18.9 nM	26.1%	> 10000 nM	CC(C)NC(=O)CNC(=O)c1ncc(S(=O)(=O)c2ccc(C(F)(F)F)cc2)cc1N [Compound 104, 3-amino-N-[2-oxo-2-(propan-2-ylamino)ethyl]-5-{[4-(trifluoromethyl)phenyl]sulfonyl}pyridine-2-carboxamide]
103.5%	2 nM	50.4%	128 nM	Nc1cc(S(=O)(=O)c2ccc(C(F)(F)F)cc2)cnc1C(=O)N1CC(O)(C(F)(F)F)C1 [Compound 105, (3-amino-5-{[4-(trifluoromethyl)phenyl]sulfonyl}pyridin-2-yl)[3-hydroxy-3-(trifluoromethyl)azetidin-1-yl]methanone]
99.0%	19.5 nM	42.4%	> 3330 nM	Nc1cc(S(=O)(=O)c2ccc(C(F)(F)F)cc2F)cnc1C(=O)NC[C@H]1CCOC1 [Compound 106, 3-amino-5-{[2-fluoro-4-(trifluoromethyl)phenyl]sulfonyl}-N-[(3R)-tetrahydrofuran-3-ylmethyl]pyridine-2-carboxamide]
103.0%	1.5 nM	81.7%	164 nM	Nc1cc(S(=O)(=O)c2ccc(C(F)(F)F)cc2F)cnc1C(=O)NC[C@@H](O)C(F)(F)F [Compound 107, 3-amino-5-{[2-fluoro-4-(trifluoromethyl)phenyl]sulfonyl}-N-[(2R)-3,3,3-trifluoro-2-hydroxypropyl]pyridine-2-carboxamide]
110.0%	18.2 nM	56.8%	1700 nM	COCCN(C1CC1)S(=O)(=O)c1cnc(C(=O)NCC(O)C(F)(F)F)c(N)c1 (stereo not drawn) [Compound 108, 3-amino-5-[cyclopropyl(2-methoxyethyl)sulfamoyl]-N-(3,3,3-trifluoro-2-hydroxypropyl)pyridine-2-carboxamide]
104.0%	3.6 nM	62.6%	296 nM	Nc1cc(S(=O)(=O)N2CCOc3ccccc32)cnc1C(=O)NCC(O)C(F)(F)F (stereo not drawn) [Compound 109, 3-amino-5-(2,3-dihydro-4H-1,4-benzoxazin-4-ylsulfonyl)-N-(3,3,3-trifluoro-2-hydroxypropyl)pyridine-2-carboxamide]
116.0%	33.5 nM	83.6%	1140 nM	CC1(C)CN(C(=O)c2ncc(S(=O)(=O)c3ccc(C(F)(F)F)cc3)cc2N)C1 [Compound 110, (3-amino-5-{[4-(trifluoromethyl)phenyl]sulfonyl}pyridin-2-yl)(3,3-dimethylazetidin-1-yl)methanone]
103.2%	22.6 nM	99.2%	851 nM	CC1(C)CN(C(=O)c2ncc(S(=O)(=O)c3ccc(C(F)(F)F)cc3F)cc2N)C1 [Compound 111, (3-amino-5-{[2-fluoro-4-(trifluoromethyl)phenyl]sulfonyl}pyridin-2-yl)(3,3-dimethylazetidin-1-yl)methanone]
100.6%	2.6 nM	74.1%	157 nM	Nc1cc(S(=O)(=O)c2ccc(C(F)(F)F)cc2F)cnc1C(=O)N1CC(O)(C(F)(F)F)C1 [Compound 112, (3-amino-5-{[2-fluoro-4-(trifluoromethyl)phenyl]sulfonyl}pyridin-2-yl)[3-hydroxy-3-(trifluoromethyl)azetidin-1-yl]methanone]
101.9%	10.4 nM	41.1%	297 nM	CC(C)NC(=O)CNC(=O)c1ncc(S(=O)(=O)c2ccc(C(F)(F)F)cc2F)cc1N [Compound 113, 3-amino-5-{[2-fluoro-4-(trifluoromethyl)phenyl]sulfonyl}-N-[2-oxo-2-(propan-2-ylamino)ethyl]pyridine-2-carboxamide]
109.3%	19.1 nM	37.9%	> 10000 nM	Nc1cc(S(=O)(=O)c2ccc(C(F)(F)F)cc2F)cnc1C(=O)NC[C@@H]1CCOC1 [Compound 114, 3-amino-5-{[2-fluoro-4-(trifluoromethyl)phenyl]sulfonyl}-N-[(3S)-tetrahydrofuran-3-ylmethyl]pyridine-2-carboxamide]
102.3%	34.9 nM	40.6%	900 nM	Nc1cc(S(=O)(=O)c2ccc(OC(F)(F)F)cc2F)cnc1C(=O)NC[C@H]1CCOC1 [Compound 115, 3-amino-5-{[2-fluoro-4-(trifluoromethoxy)phenyl]sulfonyl}-N-[(3R)-tetrahydrofuran-3-ylmethyl]pyridine-2-carboxamide]
101.1%	27.7 nM	50.0%	1400 nM	Nc1cc(S(=O)(=O)c2ccc(OC(F)(F)F)cc2F)cnc1C(=O)NC[C@@H]1CCOC1 [Compound 116, 3-amino-5-{[2-fluoro-4-(trifluoromethoxy)phenyl]sulfonyl}-N-[(3S)-tetrahydrofuran-3-ylmethyl]pyridine-2-carboxamide]
107.9%	1.7 nM	79.8%	218 nM	Nc1cc(S(=O)(=O)c2ccc(OC(F)(F)F)cc2F)cnc1C(=O)NC[C@@H](O)C(F)(F)F [Compound 117, 3-amino-5-{[2-fluoro-4-(trifluoromethoxy)phenyl]sulfonyl}-N-[(2R)-3,3,3-trifluoro-2-hydroxypropyl]pyridine-2-carboxamide]
96.5%	76.8 nM	54.0%	1110 nM	CO[C@H]1C[C@H](NC(=O)c2ncc(S(=O)(=O)c3ccc(OC(F)(F)F)cc3)cc2N)C1 [Compound 120, 3-amino-N-(trans-3-methoxycyclobutyl)-5-{[4-(trifluoromethoxy)phenyl]sulfonyl}pyridine-2-carboxamide]
102%	113 nM	88.6%	1330 nM	Nc1cc(S(=O)(=O)c2ccc(OC(F)(F)F)cc2)cnc1C(=O)N1CC2(CCCOC2)C1 [Compound 121, (3-amino-5-{[4-(trifluoromethoxy)phenyl]sulfonyl}pyridin-2-yl)(6-oxa-2-azaspiro[3.5]non-2-yl)methanone]
83.2%	35.3 nM	50.9%	425 nM	Nc1cc(S(=O)(=O)c2ccc(OC(F)(F)F)cc2)cnc1C(=O)NC1CC(F)(F)C1 [Compound 122, 3-amino-N-(3,3-difluorocyclobutyl)-5-{[4-(trifluoromethoxy)phenyl]sulfonyl}pyridine-2-carboxamide]
98.5%	86.2 nM	60.5%	880 nM	COCCCNC(=O)c1ncc(S(=O)(=O)c2ccc(OC(F)(F)F)cc2)cc1N [Compound 123, 3-amino-N-(3-methoxypropyl)-5-{[4-(trifluoromethoxy)phenyl]sulfonyl}pyridine-2-carboxamide]
104.0%	100 nM	57.0%	824 nM	CC1(CCNC(=O)c2ncc(S(=O)(=O)c3ccc(OC(F)(F)F)cc3)cc2N)CC1 [Compound 124, 3-amino-N-[2-(1-methylcyclopropyl)ethyl]-5-{[4-(trifluoromethoxy)phenyl]sulfonyl}pyridine-2-carboxamide]
114.0%	65.6 nM	84.1%	2210 nM	Nc1cc(S(=O)(=O)c2ccc(OC(F)(F)F)cc2)cnc1C(=O)N1CC2(CCOC2)C1 [Compound 125, (3-amino-5-{[4-(trifluoromethoxy)phenyl]sulfonyl}pyridin-2-yl)(6-oxa-2-azaspiro[3.4]oct-2-yl)methanone]
92.9%	64.9 nM	62.2%	1470 nM	CC1CN(C(=O)c2ncc(S(=O)(=O)c3ccc(OC(F)(F)F)cc3)cc2N)C1 [Compound 126, (3-amino-5-{[4-(trifluoromethoxy)phenyl]sulfonyl}pyridin-2-yl)(3-methylazetidin-1-yl)methanone]
107.0%	82.9 nM	61.2%	1880 nM	Nc1cc(S(=O)(=O)c2ccc(OC(F)(F)F)cc2)cnc1C(=O)NC1CCOC1 (stereo not drawn) [Compound 127, 3-amino-N-(tetrahydrofuran-3-yl)-5-{[4-(trifluoromethoxy)phenyl]sulfonyl}pyridine-2-carboxamide]
